{"source": "patent US11723894B2", "about": "“Combination product for the treatment of neurological and/or psychiatric disorders” (Consejo Superior de Investigaciones Cientificas (CSIC), priority 2017, dated 2023)", "key": {"[1]": {"tested_on": "hippocampal subgranular neurogenic niche", "experiment": "Short-term (4 days) in vivo activation of the hippocampal subgranular neurogenic niche (BrdU)", "parameters": "species or system C57BL/6 mice", "conditions": "DMT 0.1 μg/animal, lateral ventricle, sacrificed day 5", "experimental": "Adult male C57BL/6 mice (obtained from Charles River Labs) were injected in the lateral ventricle (coordinates: from bregma, posterior −1 mm, lateral +1.3 mm, ventral +2 mm, according to the atlas of Paxinos and Franklin (Paxinos G, Franklin KBJ. The Mouse Brain in Stereotaxic Coordinates. 4. San Diego: Academic Press; 2012)), using a stereotaxic apparatus (Kopf Instruments, CA) with DMT (0.1 μg/animal), alone or in combination with the selective Sigma-1 BD1063 (BD, 0.2 μg/animal, Sigma, catalog number SML0276), the mixed 5-HT2A/1A receptor antagonist methiothepin (Met, 0.2 μg/animal, Sigma catalog number M149), or the selective 5-HT1A receptor antagonist WAY100635 (WAY, 0.2 μg/animal, ABCAM catalog number ab120550). Prior to the injection, mice were anesthetized by intraperitoneal injection of ketamine (60 mg/kg) and medetomidine (0.125 mg/kg). […] The boundaries of these nervous system regions were determined with reference to internal anatomic landmarks (Paxinos G, Franklin KBJ. The Mouse Brain in Stereotaxic Coordinates. 4. San Diego: Academic Press; 2012). For DG area selection, images were analyzed using computer-assisted image analysis software (Soft Imaging System Corporation, Lakewood, Colo., http://www.soft-imaging.com). Positive cells, which intersected the uppermost focal plane (exclusion plane) and the lateral exclusion boundaries of the counting frames, were not counted. […]"}, "[2]": {"tested_on": "microglial cells", "experiment": "LPS-induced nitrite production (Griess) in primary microglial cultures", "assay_type": "cell-based, rat", "conditions": "microglia", "experimental": "Example 8: DMT, DET, DPT and 5-MeO-DMT administration in vitro prevents inflammation in rat primary glial cells. […] Rat primary glial cell cultures were prepared from the cerebral cortex of 3 day old rats which were dissected, dissociated, and incubated with 0.25% trypsin/EDTA at 37° C. for 1 h. After centrifugation, the pellet was washed three times with HBSS (Gibco) and the cells were plated in poly-D-lysine (20 μg/mL) pretreated flasks (75 cm2). After 7-10 days, the flasks were agitated in an orbital shaker for 4 h at 230 rpm at 37° C. and non-adherent microglial cells were isolated and plated. Then Dulbecco's Modified Eagle's Medium (DMEM) was added to the flasks, which were agitated in a horizontal shaker at 260 rpm at 37° C. After overnight agitation, the supernatant (oligodendrocytes and some remaining microglial cells) was removed, and astrocytes (adherent cells) were collected. The purity of the cultures was >95%, as determined by immunofluorescence analysis using an anti-glial fibrillary acidic protein (GFAP; clone G-A-5; Sigma-Aldrich) antibody to identify astrocytes, and an anti-Iba1 (Wako Catalog No. 019-19741) antibody to identify microglial cells. On attaining semiconfluence, cells were administered each of the test tryptamines at 1 μM or with the combination test tryptamine+Ritanserin (Rit at 1 μM) 2 h before exposure to lipopolysaccharide (LPS, 10 μg/mL; Sigma-Aldrich) and kept in the presence of each drug or drug combination for 24 h. In combination studies, Rit was added to medium 1h before administration of the corresponding tryptamine. Vehicle-treated cultures were used as a control. After the 24 h drug exposure period, cultures were tested to assess nitrite release. To quantify nitrite concentrations in culture medium, supernatants of glial cultures were collected and mixed with an equal volume of Griess reagent (Sigma-Aldrich). Samples were then incubated at room temperature for 15 min and absorbance was measured at 540 nm on a microplate reader. Results are expressed as the mean±SEM of six replications in three different experiments"}}}
{"smiles": "CN(C)CCc1c[nH]c2ccccc12", "note": "[DMT, N,N-dimethyltryptamine]", "values": [{"measurement": "BrdU staining (proliferation) in the hippocampus", "setting": "[1]", "result": "increases"}, {"measurement": "reduction of LPS-induced nitrite in the presence of Rit", "setting": "[2]; Rit 1 μM 1 h before tryptamine 1 μM, then LPS 10 μg/mL 24 h", "result": "maintained"}, {"measurement": "LPS-induced nitrite increases", "setting": "[2]; tryptamine 1 μM before LPS 10 μg/mL, 24 h, vs LPS alone", "result": "significantly reduced"}]}
